US6656971B2, “Trisubstituted carbocyclic cyclophilin binding compounds and their use” (Guilford Pharmaceuticals Inc., priority 2001, dated 2003)

Columns and labels:
[1] = biological target: T1, human recombinant CyPA (Homo sapiens, UniProt P62937); test: Semiautomated microtiter plate assay of rotamase activity inhibition, human recombinant CyPA; type: biochemical; conditions: Table B, value without asterisk: human recombinant CyPA
Procedure: (§1) Rotamase inhibition was determined using a semiautomated microtiter plate assay modification of the above described assay [see Küllertz et al., Clin. Chem. 44, 502-508 (1998)]. All dilutions of CyPA, peptide substrate, and chymotrypsin were made in 35 mM ice-cold HEPES buffer. Fifty μL of CyPA solution is added to 50 μL of the peptide substrate solution (Phe-Pro-Phe p-nitroanilide, 0.16 mg/ml) in a glass microtiter well plate (the concentration of human recombinant CyP being adjusted so that the reaction rate is increased by a factor of 3 as compared to an uncatalyzed control reaction wherein the peptide substrate is degraded by chymotrypsin alone, in the absence of CyPA and test compound). Using a Beckman Multimek™ 96 automated 96-channel pipettor, 5 μL of test compound solution, or a DMSO blank, were added to each well for a 30 minute preincubation at 4° C. One hundred μL of chymotrypsin solution (1 mg/mL) were added to each well and the absorbance at 390 nm versus time was monitored for 9-10 minutes using a BioRad Ultramark plate reader maintained at 4° C. and the rate constants were determined from the absorbance versus time data files.
(§2) IC50 values which were obtained for representative compounds are presented in the following Table B. The cyclophilin utilized was a human recombinant CyPA. […] While CyP A was used in these examples, other CyP proteins can be substituted.

[2] = biological target: T1, human recombinant CyPA; test: Rotamase (PPIase) inhibition, chymotrypsin-coupled cuvette assay, human recombinant CyPA; type: biochemical; conditions: Table A, value without asterisk: human recombinant CyPA
Text: A number of substrates for rotamase are known in the art or can be derived from those known. Typically, the substrate contacts a sample containing a protein with rotamase activity and the conversion of the substrate is detected after a period of time. The method for detecting conversion of the substrate will vary with the particular substrate chosen. One method has been termed the Ki test (See Harding, et al., Nature, 341:758-760 (1989); and Holt et al., J. Am. Chem. Soc., 115:9923-9938). The cis-trans isomerization of an alanine-proline bond in a model substrate, N-succinyl-Ala-Ala-Pro-Phe-p-nitroanilide (SEQ ID NO: 1), is monitored spectrophotometrically in a chymotrypsin-coupled assay. The action of chymotrypsin releases p-nitroaniline from only the trans form of the substrate. The amount of p-nitroaniline can be monitored in a spectrophotometer, for example. Other methods of detecting the presence of p-nitroaniline can also be used. The inhibition of this reaction caused by different concentrations of inhibitor is determined and the data are analyzed as a change in first-order rate constant as a function of inhibitor concentration, which yields the Ki value.
The following were added to a plastic cuvette: 950 μl of ice cold assay buffer (25 mM HEPES, pH 7.8, 100 mM NaCl), 10 μL of CyP A (2.5 μM in 10 mM Tris-Cl pH 7.5, 100 mM NaCl, 1 mM dithiothreitol), 25 μL of chymotrypsin (50 mg/ml in 1 mM HCl), and 10 μL of test compound, at various concentrations, in dimethyl sulfoxide. The reaction was initiated by the addition of 5 μL of substrate (succinyl-Ala-Phe-Pro-Phe-para-nitroanilide (SEQ ID NO: 1), 5 mg/mL in 470 mM LiCl in trifluoroethanol). The absorbance at 390 nm versus time was monitored for 90 seconds using a spectrophotometer and the rate constants were determined from the absorbance versus time data files.
The IC50 values which were obtained for representative compounds are given in the following Table A, and refer to the concentration that inhibits 50% of the rotamase activity in a sample.
(§3) The Cyclophilin utilized was a human recombinant CyPA, [Yoo et al., J. Mol. Biol., 269 (1997) 780-95].

[3] = biological target: T2, recombinant rat CyPA-GST fusion protein (Rattus norvegicus, UniProt P10111); test: Rotamase (PPIase) inhibition, chymotrypsin-coupled cuvette assay, rat CyPA-GST fusion protein; type: biochemical; conditions: Table A, value with asterisk: recombinant rat CyPA-GST fusion protein
T2 construct: made in house; host or cells: E. coli BL21

[4] = biological target: T2, recombinant rat CyPA-GST fusion protein; test: Semiautomated microtiter plate assay of rotamase activity inhibition, rat CyPA-GST fusion protein; type: biochemical; conditions: Table B, value with asterisk: recombinant rat CyPA-GST fusion protein
Procedure: as §3
The resulting fragment (573 base pairs) was cloned into pCRII and amplified. The CyP sequence was cut out with Sma1 and EcoR1 and cloned into the Sma1/EcoR1 sites in pGEX2TK (Pharmacia). This plasmid was transformed into BL21 E. coli cells for expression of the GST-CyPA fusion protein.
as §1, §2

[5] = test system: nigrostriatal dopaminergic fibers; test: MPTP-lesioned mouse model of Parkinson's disease, striatal TH fiber density; type: in vivo, CD1 albino mice; conditions: for % protection of striatal tyrosine hydroxylase-immunoreactive fibres: 10 mg/kg s.c. once daily days 1-5, one hour prior to MPTP, perfused day seven

T2 sequence (P10111 2-164): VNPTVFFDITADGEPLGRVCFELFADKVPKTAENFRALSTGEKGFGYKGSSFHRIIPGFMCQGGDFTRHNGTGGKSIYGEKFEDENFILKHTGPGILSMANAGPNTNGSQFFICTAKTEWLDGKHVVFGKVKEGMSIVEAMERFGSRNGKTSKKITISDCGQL
T1 sequence (P62937 whole entry): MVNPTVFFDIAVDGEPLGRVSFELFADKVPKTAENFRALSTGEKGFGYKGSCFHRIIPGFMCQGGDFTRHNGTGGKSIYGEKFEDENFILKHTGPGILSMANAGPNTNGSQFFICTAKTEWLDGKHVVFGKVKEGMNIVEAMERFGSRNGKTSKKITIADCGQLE

Compound | IC50 [1] [nM] | IC50 [2] [nM] | IC50 [3] [nM] | further results
S=C(Nc1cc(Cl)cc(Cl)c1)Nc1cc(NC(=S)Nc2cc(Cl)cc(Cl)c2)cc(Nc2ccccn2)c1 [Compound 13] | 1370 | 456 |  | 
O=C(NNC(=O)c1cc(O)cc(NC(=O)c2cccc(C(F)(F)F)c2)c1)c1ccccc1 [Compound 15, 1-Benzoyl-2-{3-[(3-trifluoromethyl)phenyl]carbonylamino-5-hydroxy}benzoylhydrazine] | 9100 | 18700 |  | 
O=C(Nc1cc(Cl)cc(Cl)c1)c1cc(COc2ccc(Cl)c(Cl)c2)cc(C(=O)Nc2cc(Cl)cc(Cl)c2)c1 [Compound 20, 1-[(3,4-dichlorophenyl)oxymethyl]-3,5-bis-[(3,5-dichlorophenyl)aminocarbonyl]benzene] | 499 | 153 |  | 
N#Cc1ccccc1-c1ccc(COc2cc(C(=O)NCCc3ccc(Cl)c(Cl)c3)cc(C(=O)NCCc3ccc(Cl)c(Cl)c3)c2)cc1 [Compound 21, 1-[4-(2-cyanophenyl)benzy]loxy-3,5-bis{2-[(3,4-dichlorophenyl)ethyl]aminocarbonyl}benzene] | 1730 | 490 |  | 
O=C(Nc1cccc(C(F)(F)F)c1)c1cc(/C=C/c2ccc3ccccc3c2)cc(C(=O)Nc2cccc(C(F)(F)F)c2)c1 [Compound 25, (5-(2-(2-naphthyl)vinyl)-3-{N-[3-(trifluoromethyl)phenyl]carbamoyl}phenyl)-N-[3-(trifluoromethyl)phenyl]formamide] | 2030 | 297 |  | 
Nc1cc(CN2C(=O)c3ccccc3C2=O)cc(NC(=S)Nc2cc(Cl)cc(Cl)c2)c1 [Compound 31, 2-{[3-amino-5-({[(3,5-dichlorophenyl)amino]thioxomethyl}amino)phenyl]methyl}isoindoline-1,3-dione] |  | 1580 | 3530 | IC50 [4]: 6940 nM
O=C(Nc1cc(Cl)c(Cl)c(Cl)c1)c1cc(OCc2ccc(Cl)c(Cl)c2)cc(C(=O)Nc2cc(Cl)c(Cl)c(Cl)c2)c1 [Compound 32, 1-(3,4-dichlorobenzyloxy)-3,5-bis-[(3,4,5-trichlorophenyl)aminocarbonyl]benzene] | 51.5 | 164 | 102 | IC50 [4]: 91.7 nM
CN(C)c1ccc(Nc2ccc(NC(=S)Nc3cc(Cl)cc(Cl)c3)cc2NC(=S)Nc2cc(Cl)cc(Cl)c2)cc1 [Compound 35, [(3,5-dichlorophenyl)amino]{[5-({[(3,5-dichlorophenyl)amino]thioxomethyl}amino)-2-{[4-(dimethylamino)phenyl]amino}phenyl]amino}methane-1-thione] |  |  | 1310 | IC50 [4]: 353 nM
O=C(Nc1ccc(Cl)c(C(F)(F)F)c1)c1cccc(COc2cc(C(=O)Nc3ccc(Cl)c(C(F)(F)F)c3)cc(C(=O)Nc3ccc(Cl)c(C(F)(F)F)c3)c2)c1 [Compound 37, 3-{[(3-Trifluoromethyl-4-chlorophenyl)aminocarbonyl]benzyloxy}-1,5-bis-[(3-trifluoromethyl-4-chlorophenyl)aminocarbonyl]benzene] |  | 1200 |  | 
O=C(Nc1ccc(Cl)c(Cl)c1)c1cccc(COc2cc(C(=O)Nc3ccc(Cl)c(Cl)c3)cc(C(=O)Nc3ccc(Cl)c(Cl)c3)c2)c1 [Compound 38, 3-{[(3,4-dichlorophenyl)aminocarbonyl]benzyloxy}-1,5-bis-[(3,4-dichloro-phenyl)aminocarbonyl]benzene] |  | 736 |  | 
O=C(Nc1cccc([N+](=O)[O-])c1)c1ccc(Br)c(C(=O)Nc2cccc([N+](=O)[O-])c2)c1 [Compound 41, {2-bromo-5-[N-(3-nitrophenyl)carbamoyl]phenyl}-N-(3-nitrophenyl) formamide] |  | 1370 |  | 
O=C(Nc1cccc(C(F)(F)F)c1)c1cc(OCc2ccc3ccccc3c2)cc(C(=O)Nc2cccc(C(F)(F)F)c2)c1 [Compound 42, 1,3-Bis[(3-trifluoromethylphenyl)aminocarbonyl]-5-[(2-naphthyl)methyloxy]benzene] |  |  | 230 | % protection of striatal tyrosine hydroxylase-immunoreactive fibres [5]: 44.1%; striatal TH fiber density ([5]; regeneration protocol: MPTP days 1-5, compound once daily on days 8-12, perfused day 18): 88%
S=C(Nc1cc(Cl)cc(Cl)c1)Nc1ccc(N2CCCCC2)c(NC(=S)Nc2cc(Cl)cc(Cl)c2)c1 [Compound 44] |  |  | 374 | % protection of striatal tyrosine hydroxylase-immunoreactive fibres [5]: 25.1%
COc1ccc(NC(=O)C(c2ccccc2)c2ccccc2)cc1OCc1cccc2ccccc12 [Compound 49, N-[4-methoxy-3-(naphthylmethoxy)phenyl]-2,2-diphenylethanamide] |  |  | 1020 | 
COc1ccc(NS(=O)(=O)c2cccc3ccccc23)cc1OCCc1cccc2ccccc12 [Compound 50] |  |  | 978 | 
O=C(Nc1ccc(Cl)c(C(=O)c2ccccc2)c1)c1cc(Cl)cc(Cl)c1 [Compound 51, (3,5-Dichlorophenyl)-N-[4-chloro-3-(phenylcarbonyl)phenyl]formamide] |  |  | 1550 | 
O=C(Nc1cc(S(=O)(=O)NC(c2ccccc2)c2ccccc2)ccc1Cl)c1cc(Cl)cc(Cl)c1 [Compound 52, (3,5-Dichlorophenyl)-N-(5-{[(diphenylmethyl)amino]sulfonyl}-2-chlorophenyl)formamide] |  |  | 861 | 
(3-bromo-5-{N-[3-(trifluoromethyl)phenyl]carbamoyl}phenyl)-N-[3-(trifluoromethyl) phenyl]formamide [Compound 26] | 2540 | 909 |  | 
